Measurements from PMC4129416, “YLT192, a Novel, Orally Active Bioavailable Inhibitor of VEGFR2 Signaling with Potent Antiangiogenic Activity and Antitumor Efficacy in Preclinical Models” (Scientific Reports, 2014).

Key:
HCT116 cells = experiment: Annexin V/propidium iodide apoptosis assay, flow cytometry; assay type: cell-based, human; settings: 48 hours; annexin V-FITC and PI staining; concentration-dependent
Procedure: Figure 4 Inhibitory effects of YLT192 on tumor cells. (A) YLT192 inhibited U251 and HCT116 cells proliferation. The EdU incorporation assay was conducted on U251 and HCT116 cells after treated with YLT192 for 24 hours. The EdU-positive (red fluorescent staining) cells and Hoechst staining (blue fluorescent staining) cells represented proliferating and total cells in the fluorescent images, respectively (100×). Quantification was shown on the right panels. (B) YLT192 induced apoptosis of HCT116 cells. HCT116 cells were treated with YLT192 or vehicle for 48 hours followed by flow cytometric analysis of annexin V-FITC and PI staining. The proportion of early apoptotic cells (annexin V positive) and late apoptotic cells (annexin V and PI positive cells) were shown. Typical apoptosis-related proteins caspase 3 and Bax were detected by western blot. Each has the expression of β-actin as internal control. The full size blots were shown in the Supplemental Figure S6 online. For (A) and (B), one representative experiment of three is shown. Data are means ± SEM, *P < 0.05, **P < 0.01. (C) YLT192 inhibited oncogenic signaling pathways in tumor cells in vitro. U251 and HCT116 cells were treated with YLT192 or vehicle for 48 hours and the expression of protein in different signaling pathways were detected by western blot with specific antibodies. Blots are representative of three experiments. […]

MV4-11 = experiment: Inhibition of tumor cell growth; assay type: cell-based; settings: MV4-11, human acute myeloid leukemia; 48 hour treatment; means ± SD, n=3
Source text: (§1) Data are means ± SD, n=3.
(§2) cell line cell type IC50(μM) […]

MCF-7 = experiment: Inhibition of tumor cell growth; assay type: cell-based; settings: MCF7; MCF-7, human mammary carcinoma; 48 hour treatment; means ± SD, n=3
Source text: as §1, §2

SKOV-3 = experiment: Inhibition of tumor cell growth; assay type: cell-based; settings: SK-OV-3; SKOV-3, human ovarian carcinoma; 48 hour treatment; means ± SD, n=3
Source text: as §1, §2

MDA-MB-231 = experiment: Inhibition of tumor cell growth; assay type: cell-based; settings: MDA-MB-231, human mammary carcinoma; 48 hour treatment; means ± SD, n=3
Source text: as §1, §2

COLO-205 = experiment: Inhibition of tumor cell growth; assay type: cell-based; settings: COLO-205, human colorectal carcinoma; 48 hour treatment; means ± SD, n=3
Source text: as §1, §2
COLO-205 human colorectal carcinoma 23.0 ±1.5

HUVEC = experiment: Transwell invasion assay; assay type: cell-based, human; settings: various concentrations; 24 hours; concentration-dependent
Source text: Cell migration is essential for ECs in angiogenesis and for cancer cells in tumor growth and metastasis. […] Cell invasion is essential for EC in angiogenesis, so we performed transwell assays to evaluate the ability of HUVEC to pass through the Matrigel and membrane barriers of the transwell in the presence of various concentrations of YLT192 or vehicle.
Figure 2 Effects of YLT192 on HUVECs proliferation, migration, invasion and tube formation. […] Cells were wounded by the pipette and then treated with various concentrations of compounds for 24 hours. Migrated cells were quantified by manual counting (50×). […] The bottom chambers of the transwells were filled with 600 μL EGM2 containing various growth factors while the top chambers were seeded with 4 × 10^4 HUVECs in EBM2 and treated with different concentrations of compounds for 24 hours. Cells invaded through the membrane were stained and quantified (100×). […] HUVECs were seeded on Matrigel layer and treated with different concentrations of compounds. HUVECs tube formation was assessed 6 hours later (50×). One representative experiment of three is shown. […]
HUVECs were allowed to grow into full confluence in 24-well plates and then wounded by scratching with pipette tips and washed with PBS. […] Images were taken using a ZEISS digital microscope and invading cells were counted by manual counting. […]

HCT116 = experiment: Inhibition of tumor cell growth; assay type: cell-based; settings: HCT-116; HCT116, human colorectal carcinoma; 48 hour treatment; means ± SD, n=3
Source text: as §1
cell line cell type IC50(μM)

With CNC(=O)c1cc(Oc2ccc(NC(=O)c3cccc(OC)c3)cc2)ccn1 [YLT192] as the molecule, how does the “apoptosis in HCT116 cells” value (HCT116 cells) read?
Its value is “increased apoptosis”.

And the IC50 (MV4-11)?
The IC50 was 21.9 ± 1.9 µM.

And the IC50 (MCF-7)?
The IC50 was 16.8 ± 1.7 µM.

And the IC50 (SKOV-3)?
The IC50 was 8.2 ± 1.5 µM.

What about the IC50 (MDA-MB-231) of the same molecule?
Its IC50 is 11.9 ± 2.1 µM.

And the IC50 (COLO-205)?
Its IC50 is 23 ± 1.5 µM.

And the “invasion of HUVECs in transwell assay” value (HUVEC)?
The value was “significantly inhibited”.

And the IC50 (HCT116)?
The IC50 was 7.4 ± 0.5 µM.
